Assay [1] has as its system CD1c self-reactive T cells. In words: T cell activation assay with lipid-pulsed CD1c+ APCs (GM-CSF and/or IFN-γ release, ELISA). Format: cell-based, human. The note with it: same T cells; data not shown. Here is the method: T cell activation assays were performed by co-culturing the indicated numbers of target cells (5x10^4/well unless otherwise indicated) with T cells (5x10^4/well) in 200µl volume in duplicate or triplicate cultures. In some experiments, mouse anti-CD1c (L161, Abcam) or mouse IgG1 isotype control mAbs were added and incubated for 30 min prior to the addition of T cells. Supernatants were collected after 24-48 hours and cytokines released by T cells (GM-CSF and/or IFN-γ) were measured by ELISA. In assays using fractionated lipids, THP1-CD1c cells (5x10^4/well) were fixed with 0.05% glutaraldehyde for 20 s and used as APCs. Fold change in cytokine release was calculated using the following formula: GM-CSF release with lipid pulsed APC / GM-CSF release with un-pulsed APC. In some experiments, normal B cells purified from PBMCs (5x10^4/well) were used as APCs without prior fixation. APCs were pulsed with lipids for 4 hours at the indicated dilutions before addition of T cells.

For assay [2], the system named is CD1c self-reactive T cells. In words: sCD1c-plate-bound T cell activation assay. It is filed as cell-based, human. As to conditions: CD1c self-reactive clones DN4.99, K34A27f; GM-CSF release; Fig. 1E, 3 C. Here is the method:
sCD1c-plate-bound assays were performed using MaxiSorp plates (Nunc) coated with anti-BirA mAb (Nowbakht et al., 2005) to capture sCD1c and were then incubated with lipids for 6 hours. The wells were extensively washed before addition of T cells.
Recombinant soluble human CD1c tagged with BirA peptide (sCD1c), was obtained and purified using techniques similar to those previously described (Garcia-Alles et al., 2006). The following primers were used to PCR amplify the extracellular domain of human CD1c: forward XhoI 5'- […] (SEQ ID No. 3) and reverse ClaI 5'-[…] (SEQ ID No. 4). sCD1c was purified from J558-transfected cell culture supernatants by affinity chromatography using anti-CD1c mAb (10C3, BD Pharmingen).

In the case of lysophosphatidylethanolamine [LPE], the “doses at which T cells were very weakly stimulated” value (from here on “doses”) in assay [1] was “above 50 µg/ml”. lysophosphatidylcholine [LPC]: the “doses” value in assay [1] is recorded as “above 50 µg/ml”.

With lysophosphatidic acid [LPA], the “doses” value in assay [1] was “above 50 µg/ml”. With sulfatide, in assay [2], the “stimulation of T cells by lipid presented by plastic-bound sCD1c” value is given as “failed to stimulate”.

Values taken from patent EP2949339A1, “Agonist of CD1c-restricted T cells and uses thereof” (Ospedale San Raffaele S.r.l., priority 2014, dated 2015).
